These results are taken from PubChem BioAssay AID179 (DTP/NCI, 2004).

Active and inactive are the calls of the source.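 How the source made its calls: active means compounds giving half or more protection of infected cells from virus-caused growth loss, again on retest; inactive means the rest.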 Where a SMILES comes first, the peptide text is derived from it. Bridges are numbered along the chain shown (N, C = ends). The star is where a group is joined. Cbz = O=C(OCc1ccccc1)* Where only a bound is given, the exact number is not on record here.

In this test the test system is CEM cells HIV-1 protection, formazan growth assay. Nature of the test: NCI AIDS Antiviral Assay. Particulars: for IC50: measured here: growth of uninfected CEM cells. A digest of the protocol:
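Steps: treat uninfected and HIV-1-infected human CEM cells at five drug levels; quantify growth by soluble formazan; retest any compound reaching 50% protection; classify actives from the retest.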

Regarding `O=C1OI(C#Cc2ccccc2)c2ccccc21`, the EC50 is > 20 µM and the half-inhibitory concentration (IC50) came to 3.31 µM.
With `C[Si](C)(C)/C=C\CCNCc1ccccc1`, the EC50 was > 776 µM and the IC50 was > 776 µM.
Turning to `NNC(=O)/C(=C/c1cccc([N+](=O)[O-])c1)NC(=O)c1ccccc1`, the EC50 is > 398 µM and the IC50 was > 398 µM.
`CC1(C)C(=O)C2(N)CCC1C2` (stereo not given): the EC50 is > 200 µM and the half-inhibitory concentration (IC50) is > 200 µM.
Consider `COC(=O)N(CO)CO`, for which the EC50 was > 200 µM and the half-maximal inhibitory concentration (IC50) was > 200 µM.
With `CCCc1ccc(OC2OC(COC(C)=O)C(OC(C)=O)C(OC(C)=O)C2OC(C)=O)cc1` (stereo not given), the EC50 is > 95.5 µM and the IC50 was > 95.5 µM.
Take `O=[N+]([O-])c1cc(C(F)(F)F)ccc1S(=O)(=O)N[C@@H]1CCCC[C@H]1NS(=O)(=O)c1ccc(C(F)(F)F)cc1[N+](=O)[O-]`: the EC50 is > 200 µM and the concentration for half-maximal inhibition (IC50) amounted to 3.98 µM.
On to `CC(=O)NC1(C)CC[C@H]2CC1C(C)=NC2(C)C` (stereo not given in full), for which the EC50 was > 1050 µM and the IC50 was > 1050 µM.
As for `CC(=O)/C(C=Nc1c(C)n(C)n(C)c1=O)=C(/O)c1ccccc1`, the EC50 was > 200 µM and the 50% inhibitory concentration (IC50) was 89.1 µM.
For `O=C1/C(=C/c2cccc(O)c2)SC(=S)N1/C=C\c1nc2ccccc2[nH]c1=O`, in that order: > 200 µM and 81.3 µM.
For `COc1ccc(/C(=N/NC(N)=O)C(c2ccc(OC)cc2)C2C(=O)Oc3ccccc32)cc1` (stereo not given), in that order: > 30.2 µM and > 30.2 µM.
With `O=c1[nH]c2ccc([N+](=O)[O-])cc2nc1/C(=N/Nc1ccccc1)C(O)c1ccco1` (stereo not given), the EC50 is > 437 µM and the IC50 is 275 µM.
For `Cn1c(=O)cc(CC(=O)O)c2ccccc21`, the EC50 was > 200 µM and the IC50 is > 200 µM.
As for `O=[N+]([O-])c1ccc2c(c1)nc1n2C(c2c(F)cccc2F)SC1` (stereo not given), the EC50 is 186 µM and the IC50 stood at 195 µM.
With `COC(=O)C(=O)C(C(=O)C(=O)Nc1ccc([N+](=O)[O-])cc1)c1nc2ccccc2[nH]c1=O` (stereo not given), the EC50 is > 575 µM and the IC50 is 72.4 µM.
For `CC(=O)CCN1CC2CN=NC2(C#N)C1` (stereo not given), in that order: > 200 µM and 46.8 µM.
As for `COc1ccc(/C=C/C(=O)c2ccc(Br)cc2)cc1`, the EC50 is > 200 µM and the IC50 is 33.1 µM.
Consider `CCCCc1ccc(Nc2nc(=S)c3[nH]cnc3[nH]2)cc1`, for which the EC50 was > 200 µM and the IC50 stood at 44.7 µM.
For the compound `Cn1cnc([N+](=O)[O-])c1Sc1ccccc1N`, the EC50 was > 525 µM and the IC50 turned out to be 61.7 µM.
For `C=C=[CH][Sn]([c]1ccccc1)([c]1ccccc1)[c]1ccccc1`, the EC50 is > 35.5 µM and the IC50 was 0.676 µM.
For `O=c1[nH][nH]c(=O)c2c1ccc1oc3ccccc3c12`, in that order: > 200 µM and > 200 µM.
As for `C=CCn1c(=S)[nH]c2c(Cl)cc(Cl)cc2c1=O`, the EC50 is > 200 µM and the IC50 stood at 107 µM.
Consider `Cc1cc(=O)oc(C)c1C(=O)O`, for which the EC50 was > 200 µM and the IC50 was > 200 µM.
As to `CC(=O)C1=C(O)CCC1=O`, the EC50 is > 200 µM and the IC50 was > 200 µM.
Regarding `CC(=O)Oc1cc(Cl)c(C)c2c1[C@H]1CC[C@]3(C)[C@@H](OC(C)=O)CC[C@H]3[C@@H]1CC2`, the EC50 is > 126 µM and the half-inhibitory concentration (IC50) was > 126 µM.
Consider `c1cc2nnc1SCCSCCCSCCS2`, for which the EC50 was > 200 µM and the half-inhibitory concentration (IC50) is 182 µM.
With `C=C1CC(C)(COc2ccc3c(C)cc(=O)oc3c2)OC1=O` (stereo not given), the EC50 is > 20 µM and the IC50 was 0.501 µM.
As to `CN(C)CCn1c2c(c3ccccc31)CCc1ccccc1-2`, the EC50 was > 200 µM and the IC50 was 15.5 µM.
With `CC(C)(C)C1COP(=O)(C(C)(C)C)OC1` (stereo not given), the EC50 was > 537 µM and the IC50 worked out at 468 µM.
Turning to `C=C1C(=O)OC2CC(C)C(C(CC(C)=O)OC(C)=O)=CCC12` (stereo not given), the EC50 is > 324 µM and the IC50 amounted to 1.58 µM.
As for `C=CC1C(=C)CCC2C1CCC1C(C)(C(=O)O)CCCC21C` (stereo not given), the result was inactive.
Regarding `O=C1CC2(CCC(O)(c3ccc4ccccc4c3)C(C(=O)c3ccc4ccccc4c3)C2)C(=O)c2ccccc2N1` (stereo not given), the EC50 was > 200 µM and the IC50 was determined as 83.2 µM.
Turning to `CC(C)(C)c1nc2c(o1)C(=Nc1ccc(F)cc1)c1ccccc1C2=O`, the outcome was inactive.
On to `Cc1cc2c(c(C(N)=O)c1C)-c1cccc(Cl)c1C2=O`, for which the outcome was inactive.
`CNC(=O)C1CCCCNC(=O)CCC(NC(=O)OCc2ccccc2)C(=O)N1` (stereo not drawn) (Cbz-Glu-Lys-NHMe; lactam 1-2; configuration not given here): the EC50 is > 200 µM and the IC50 was > 200 µM.
As to `CNC(=O)c1cn(C2OC(CO)C(O)C2O)c2ncnc(N)c12` (stereo not given), the EC50 is > 2 µM and the IC50 was found to be 1.2 µM.
Regarding `Clc1ccc(CN2COc3c(ccc4cccnc34)C2)c(Cl)c1`, the EC50 was > 200 µM and the half-maximal inhibitory concentration (IC50) is 1.45 µM.
For `O=c1nc(-c2ccccc2)cc(CC(O)c2ccc(Cl)c(Cl)c2)[nH]1` (stereo not given), the EC50 was > 20 µM and the half-inhibitory concentration (IC50) was > 20 µM.
As to `CC(C)(C)OC(=O)NC(CSCc1ccc(C(=O)c2ccccc2)cc1)C(=O)O` (stereo not given), the EC50 was > 200 µM and the IC50 came to 50.1 µM.
With `CO[C@@H]1C2OC(C)(C)OC2O[C@@H]1C1OC[C@H]2O[C@@H](n3ccc(=O)[nH]c3=O)C(O)[C@H]2N1O` (stereo not given in full), the EC50 was > 200 µM and the IC50 amounted to 148 µM.
For the compound `COC(=O)[C@@H]1CN(C(=O)CCc2ccccc2)C(=O)N1C(=O)OCc1ccccc1`, the EC50 is > 200 µM and the IC50 was 97.7 µM.
For the compound `CC12C=C[C@]3(CC[C@@H]4[C@@](C)(CO)CCC[C@]4(C)C3CC1)C2` (stereo not given in full), the outcome was inactive.
For `COc1cc2cccc(N)c2cc1OC`, the EC50 is > 200 µM and the IC50 was > 200 µM.
As to `CCOC(=O)c1[nH]n(-c2ccccc2)c(=O)c1/C=N/C(=S)NCc1ccccc1`, the EC50 is > 200 µM and the IC50 was 44.7 µM.
Turning to `O=C(O)c1n[nH][nH]c1=S`, the EC50 was 126 µM and the half-inhibitory concentration (IC50) was > 200 µM.
Turning to `CC1CCCOc2ccc(cc2)C=Nc2ccc(cc2)CCc2ccc(cc2)N=Cc2ccc(cc2)OCCC1` (stereo not given), the EC50 is > 200 µM and the IC50 is > 200 µM.
Consider `O=C(Nc1ccccc1)C(c1ccccc1)N(Nc1ccccc1)c1ccccc1` (stereo not given), for which the outcome was inactive.
On to `Cn1c2ccccc2n2c(=O)c3c(c(C#N)c12)CCCC3`, for which the EC50 is > 7.24 µM and the IC50 is > 7.24 µM.
As for `COC(=O)C1CCCN1C(=O)OC(C)(C)C` (stereo not given), the EC50 was 57.5 µM and the IC50 was > 200 µM.
In the case of `CCOC(=O)c1ccc(CS(=O)(=O)c2ccc([N+](=O)[O-])cc2)cc1`, the EC50 is > 53.7 µM and the IC50 is > 53.7 µM.
As for `Cc1ccc(SC/C(=C\CS(=O)(=O)c2ccc(C)cc2)S(=O)(=O)c2ccc(Br)cc2)cc1`, the outcome was inactive.
As to `CC(=O)Nc1ccc(S(=O)(=O)c2nnc(NC(C)=O)s2)cc1`, the EC50 was > 741 µM and the IC50 was 331 µM.
Consider `CC1Nc2ccccc2NC1C=C(C#N)C#N` (stereo not given), for which the EC50 is > 44.7 µM and the IC50 was determined as 6.76 µM.
With `Cc1c(C)c(C)c(-n2c(=O)n(C)c(=O)n2-c2cc(C(C)(C)C)cc(C(C)(C)C)c2O)c(C)c1C`, the EC50 is > 200 µM and the IC50 worked out at 13.2 µM.
With `CCOC(=O)N1CC(C)=C(C)CN1C(=O)Nc1ccc(Cl)c(Cl)c1`, the EC50 is > 200 µM and the IC50 worked out at 81.3 µM.
Consider `O=C1N[C@@H]2CCC[C@@H]2[C@@H]1c1ccc(Cl)cc1`, for which the EC50 was > 380 µM and the IC50 was 155 µM.
For `CCN(CC)CCNc1nc(N)c(C#N)c(C#N)c1C#N`, the EC50 was > 200 µM and the IC50 was 174 µM.
Turning to `O=C(CBr)Nc1ccccc1-c1ccccc1NC(=O)CBr`, the result was inactive.
On to `O=[N+]([O-])c1ccc(N=Nc2c(NNc3ccc([N+](=O)[O-])cn3)cc(S(=O)(=O)O)c3ccccc23)nc1`, for which the result was inactive.
The same measure, in the same setting: with `O=C1CCC2(c3ccc(Cl)cc3)Nc3cc(Cl)ccc3N12` (stereo not given) the entry was “inactive”.
In the case of `Cc1cc(=O)oc2c(CNC(C(=O)O)C(C)O)c(O)ccc12` (stereo not given), the EC50 is > 200 µM and the half-maximal inhibitory concentration (IC50) was > 200 µM.
`O=C(O)c1cccc(S(=O)(=O)NN2C(=O)CSC2c2ccccc2Cl)c1` (stereo not given): the EC50 is > 195 µM and the IC50 was determined as 166 µM.
Take `Nc1c2c([nH]c(=O)c1N)CCC2`: the EC50 was > 200 µM and the IC50 was > 200 µM.
In the case of `CC1(C)CNC(=O)C(C)(C2(C)NC(C)(C)CNC2=O)N1` (stereo not given), the EC50 is > 200 µM and the IC50 was > 200 µM.
On to `S=c1cc(S)sc2c1c(=S)sc1nc3ccccn3c(=S)c12`, for which the EC50 was > 9.55 µM and the IC50 was > 9.55 µM.
On to `C(=C/[PH+](c1ccccc1)c1ccccc1)/[PH+](c1ccccc1)c1ccccc1.[C-]#[O+].[C-]#[O+].[C-]#[O+].[C-]#[O+].[C-]#[O+].[Mo+2].[Mo+4].[c-]1[c-][c-][cH-][c-]1.[c-]1[c-][c-][cH-][c-]1`, for which the EC50 was > 6.03 µM and the half-inhibitory concentration (IC50) came to 3.31 µM.
Turning to `CC1=C(C2CC(C)CC(OCOCc3ccccc3)O2)C(C)(C)CCC1` (stereo not given), the EC50 is > 20 µM and the IC50 was > 20 µM.
In the case of `CCN1CC2(C)CCC(OC)C34C5CC6CCC(O)(C5C(=O)O6)C(C(O)C23)C14` (stereo not given), the result was inactive.
`CC1CC(C)(C)N=C(C(C)CC(C)(C)C)O1` (stereo not given): the EC50 was > 200 µM and the IC50 was found to be 60.3 µM.
As for `S=c1cn[nH]c2c(Cl)cccc12`, the EC50 is > 107 µM and the IC50 worked out at 81.3 µM.

In general, EC50 refers to the concentration at which the effect is half-maximal. One may read the IC50 as the concentration at which inhibition is half-maximal. Low readings indicate higher potency, high ones lower potency.
